Columns and labels:
[1] = Bioequivalence study of fixed combination versus free combination, plasma PK by LC/MS/MS; format: in vivo, healthy subjects
Experimental: Pharmacokinetic measurements were performed on blood collected from each subject. […] The PK parameters were determined in plasma, using non-compartmental methods.
AUC0-tlast: Area under the concentration-time curve from time zero to time tlast, where tlast is the last time point with measurable concentration (ng hr/ml).
AUC0-inf: Area under the plasma concentration-time curve from time zero to infinity (ng hr/ml).
Cmax: Maximum (peak) plasma concentration (ng/ml).
Tmax: Time to reach peak or maximum concentration (hr).
T1/2: Elimination half-life associated with the terminal slope (E) of a semilogarithmic concentration-time curve (hr).

[2] = drug substance; cited from earlier work

CCCCC(=O)N(Cc1ccc(-c2ccccc2-c2nnn[nH]2)cc1)[C@H](C(=O)O)C(C)C [Valsartan]
intra-subject CV for AUC0-inf ([1]; valsartan): 28.33%
intra-subject CV for AUC0-tlast ([1]; valsartan): 28.56%
intra-subject CV for Cmax ([1]; valsartan): 40.37%

COCCCOc1cc(C[C@@H](C[C@H](N)[C@@H](O)C[C@H](C(=O)NCC(C)(C)C(N)=O)C(C)C)C(C)C)ccc1OC [Aliskiren, 2(S),4(S),5(S),7(S)—N-(3-amino-2,2-dimethyl-3-oxopropyl)-2,7-di(1-methylethyl)-4-hydroxy-5-amino-8-[4-methoxy-3-(3-methoxy-propoxy)phenyl]-octanamide]
hygroscopicity [2]: highly hygroscopic
intra-subject coefficient of variation (CV) for AUC0-inf ([1]; aliskiren): 33.19%
intra-subject coefficient of variation (CV) for AUC0-tlast ([1]; aliskiren): 33.98%
intra-subject coefficient of variation (CV) for Cmax ([1]; aliskiren): 51.90%

From US20120009257A1 (priority 2009, published 2012)
